# Results as given in patent publication US20190030114A1, “ISOFORM-SPECIFIC CALPAIN INHIBITORS, METHODS OF IDENTIFICATION, AND USES THEREOF” (WESTERN UNIVERSITY OF HEALTH SCIENCES, priority 2014, published 2019).
# How the values were obtained:
# retina (GCL, IPL, RGC) = assay: acute IOP elevation (acute angle closure glaucoma model), systemic (i.p.) C2l; format: in vivo, mice
# Description: FIG. 11A: Calpain-2 inhibition reduces, while calpain-1 knockout exacerbates, cell death in the ganglion cell layer induced by acute IOP elevation. H&E staining of retinal sections from the right eye of vehicle- or C2l-injected wild-type and calpain-1 KO mice and the left eye where sham surgery was performed. Vehicle, 10% DMSO in PBS, was injected i.p. 30 min before and 2 h after acute IOP elevation. Pre- and post-injection C2l (0.3 mg/kg) was done i.p. 30 min before and 2 h after acute IOP elevation. For the One post injection group, C2l was injected 2 h after IOP elevation. For the Two post inj group, C2l was injected 2 and 4 h after IOP elevation. H&E staining was performed 3 days after surgery. Scale bar=30 μm.
# Six sections cut through the optic disc of each eye were analyzed. Cell numbers in GCL at a distance between […] the optic disc were counted. Cell densities in 6 sections from each eye were averaged. Data represent means±S.E.M. n=7 for vehicle, n=3 for pre and post inj, n=10 for one post inj, n=6 for two post inj, n=4 for KO. ns, no significant difference. ***p<0.001, Two-tailed t-test.
# FIG. 11C: Comparison of GCL cell survival rates from the right eye of vehicle- or C2l-injected wild-type and calpain-1 KO mice and the left eye where sham surgery was performed, as described in FIG. 11A. Survival rate for each mouse was calculated as the ratio of cell density in GCL of IOP-elevated eye to cell density in GCL of sham eye. *p<0.05, **p<0.01 versus vehicle, One-way ANOVA followed by Bonferroni test.
# FIG. 11D: Brn-3a immunostaining in the retina of vehicle- or C2l-injected WT mice. Acute IOP elevation was performed on the right eye, while sham surgery was performed on the left eye. Vehicle, 10% DMSO, or C2l, C2l (0.3 mg/kg) was injected i.p. 2 h after acute IOP elevation. Brn3a staining was performed 3 days after surgery. Scale bar=60 μm.
# FIG. 11E: Quantification of brn3a staining, as described in FIG. 11D. Brn3a-positive cells in GCL were counted. Data represents mean±S.E.M. n=4 for vehicle, n=5 for C2l. Ns, no significant difference, **p<0.01 sham versus IOP elevation, two-tailed t-test.
# FIG. 11F: Comparison of survival rates. n=4 for vehicle, n=5 for C2l. **p<0.01 vehicle versus C2l, two-tailed t-test.
# FIG. 11G: Representative immunoblots of PHLPP1 and STEP33 in retina tissue of WT, calpain-1 KO and C2l-injected mice collected 3 h after sham surgery or acute IOP elevation. C2l (0.3 mg/kg) was injected systemically 2 h after sham surgery or IOP elevation.
# FIG. 11H: Quantitative analysis of the levels of PHLPP1 and STEP33 and ratios of pAkt/Akt for each group. Results represent means±S.E.M. of 4 experiments. *p<0.05, **p<0.01, ***p<0.001, ns no significant difference, One-way ANOVA followed by Bonferroni test.
# Sequential activation of calpain-1 and calpain-2 in retina after acute IOP elevation. The following IOP elevation studies were performed using a model of acute angle closure glaucoma consisting of increasing intraocular pressure (IOP) to 110 mm Hg for 60 min by inserting a needle connected to an elevated reservoir of saline into the anterior chamber. This model reproduced several features of acute angle closure, including, ischemia of retina and iris as noted by absence of red reflex and pupillary response to light. Anterior chamber synechae, resulting in a narrow angle and adhesions between the iris and the cornea, increased cells and flare in the anterior chamber and increased corneal thickness due to corneal edema. Some of these changes persisted over 3 days of observation. Eyes were collected at 0, 2, 4 and 6 h after IOP elevation and retinal frozen sections were prepared and processed for immunohistochemistry with SBDP antibody. In WT mice, SBDP was clearly present in IPL at 2, 4 and 6 h after IOP elevation. However in calpain-1 KO mice, SBDP was only evident in the IPL at 4 and 6 h but not at 2 h (FIG. 10A and C). […]
# calpain-2 = biological target: T1, calpain-2 (Homo sapiens, UniProt P17655); conditions: Li et al, 1996; read-out: Ki for calpain-2 (m-calpain), literature; cited from earlier work
# T1 sequence (P17655 1-700): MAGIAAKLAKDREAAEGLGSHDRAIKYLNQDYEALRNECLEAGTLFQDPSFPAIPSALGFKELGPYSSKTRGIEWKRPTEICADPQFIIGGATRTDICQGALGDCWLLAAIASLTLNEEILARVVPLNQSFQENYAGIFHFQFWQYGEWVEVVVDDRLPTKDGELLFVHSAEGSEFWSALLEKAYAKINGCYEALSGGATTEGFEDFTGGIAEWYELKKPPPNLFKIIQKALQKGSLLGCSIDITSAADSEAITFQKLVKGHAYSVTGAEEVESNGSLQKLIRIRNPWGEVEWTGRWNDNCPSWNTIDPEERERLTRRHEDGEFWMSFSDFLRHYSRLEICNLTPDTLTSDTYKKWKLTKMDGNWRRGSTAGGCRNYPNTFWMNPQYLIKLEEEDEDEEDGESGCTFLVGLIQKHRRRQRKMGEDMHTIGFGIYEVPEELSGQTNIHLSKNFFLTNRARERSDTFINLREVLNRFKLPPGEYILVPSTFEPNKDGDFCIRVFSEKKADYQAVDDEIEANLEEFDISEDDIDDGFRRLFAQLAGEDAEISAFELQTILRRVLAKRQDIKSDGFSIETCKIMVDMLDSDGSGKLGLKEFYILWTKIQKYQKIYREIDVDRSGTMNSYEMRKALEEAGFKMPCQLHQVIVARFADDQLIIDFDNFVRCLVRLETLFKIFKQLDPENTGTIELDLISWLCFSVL
# T1 sequence (P04632 1-268 partner): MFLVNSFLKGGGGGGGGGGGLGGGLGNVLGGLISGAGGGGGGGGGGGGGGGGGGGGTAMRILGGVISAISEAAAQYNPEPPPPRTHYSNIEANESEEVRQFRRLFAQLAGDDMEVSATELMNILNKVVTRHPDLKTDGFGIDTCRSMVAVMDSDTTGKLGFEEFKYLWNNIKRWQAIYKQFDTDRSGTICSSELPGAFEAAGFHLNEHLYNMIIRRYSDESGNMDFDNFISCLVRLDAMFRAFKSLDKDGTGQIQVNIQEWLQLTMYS
# [1] = 0.3 mg/kg i.p. 30 min before and 2 h after IOP elevation (pre and post inj), 3 days, n=3
# [2] = i.p. 2 and 4 h after IOP elevation (two post inj), n=6
# [3] = i.p. 2 h after IOP elevation (one post inj), n=10
compound,measurement,setting,value
"CCC(NC(=O)C(CC(C)C)NC(=O)OCc1ccccc1)C(=O)C(=O)NCc1cc(OC)cc(OC)c1 (racemic) [Formula 1, Z-Leu-Abu-CONH—CH2-C6H3 (3, 5-(OMe)2)]","cell counts in GCL, IOP-elevated eye","retina (GCL, IPL, RGC); [1]",105.8±4.5 cells/mm
same,"cell counts in GCL, sham eye","retina (GCL, IPL, RGC); [1]",125.1±10.5 cells/mm
same,SBDP signal in IPL at 4 and 6 h,"retina (GCL, IPL, RGC); 0.3 mg/kg i.p. 2 h after IOP elevation, WT mice",significantly reduced
same,cell survival rate (cell count in IOP-elevated eye to sham eye) versus vehicle,"retina (GCL, IPL, RGC); all three C2l injected groups",significantly increased
same,"cell counts in GCL, IOP-elevated eye","retina (GCL, IPL, RGC); [2]",96.1±6.3 cells/mm
same,"cell counts in GCL, sham eye","retina (GCL, IPL, RGC); [2]",118.6±3.7 cells/mm
same,"cell counts in GCL, IOP-elevated eye","retina (GCL, IPL, RGC); [3]",86.4±7.0 cells/mm
same,"cell counts in GCL, sham eye","retina (GCL, IPL, RGC); [3]",110.6±3.6 cells/mm
same,PTEN degradation at 4 and 6 h,"retina (GCL, IPL, RGC); injected 2 h after IOP elevation, WT mice",completely blocked
same,Ki,calpain-2,22 nM
